Like-named read-outs stand apart in the source and are kept apart here.
Key:
[1] = system: Serratia marcescens expressing IMP-1 (CL5741); test: Antibiotic potentiation activity: synergistic concentration (MITC95) with imipenem, OD600 growth; type: cell-based; settings: for Serratia marcescens expressing IMP-1 (CL5741) MITC95: concentration giving 95% inhibition of bacterial growth
How it was run: (§1)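 Each strain, suspended in saline from overnight colonies and diluted 1:100 into 1.1× CAMHB, is dosed with imipenem at 4 μg/ml (or 1 μg/ml) plus compound, incubated 22–24 h at 35 °C and read by absorbance.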

[2] = system: Escherichia coli expressing NDM-1 (CLB30016); test: as above; type: cell-based; settings: for Escherichia coli expressing NDM-1 (CLB 30016) MITC95: concentration giving 95% inhibition of bacterial growth
How it was run: as §1

[3] = system: Klebsiella pneumoniae expressing VIM-1 (IHMA599644); test: as above; type: cell-based; settings: for Klebsiella pneumoniae expressing VIM-1 (IHMA 599644) MITC95: concentration giving 95% inhibition of bacterial growth
How it was run: as §1

[4] = molecular target: NDM-1 (Klebsiella pneumoniae, UniProt C7C422); test: biochemical; type: biochemical; settings: read-out: NDM-1 IC50
[5] = molecular target: IMP-1 (Serratia marcescens, UniProt P52699); test: biochemical; type: biochemical; settings: read-out: IMP-1 IC50
[6] = molecular target: VIM-1 (Pseudomonas aeruginosa (strain ATCC 15692 / DSM 22644 / CIP 104116 / JCM 14847 / LMG 12228 / 1C / PRS 101 / PAO1), UniProt A0A0F7KYQ8); test: Enzyme activity: determination of IC50, fluorescence assay with CCF2-FA substrate (VIM-1); type: biochemical
[7] = fluorescence assay with CCF2-FA substrate
[8] = fluorescence assay with CCF2-FA substrate, read-out: VIM-1 IC50
[9] = Serratia marcescens CL5741 (IMP-1), 95% growth inhibition
[10] = (CLB30016, NDM-1), 95% growth inhibition
[11] = Klebsiella pneumoniae IHMA599644 (VIM-1), 95% growth inhibition
[12] = NDM-1 enzyme, CCF2-FA substrate
[13] = IMP-1 enzyme, CCF2-FA substrate
[14] = VIM-1 enzyme, CCF2-FA substrate, read-out: VIM-1 IC50
[15] = CL5741 (IMP-1), 95% inhibition of bacterial growth
[16] = CLB30016 (NDM-1), 95% inhibition of bacterial growth
[17] = IHMA599644 (VIM-1), 95% inhibition of bacterial growth
[18] = Serratia marcescens expressing IMP-1 (CL5741), 95% growth inhibition
[19] = Escherichia coli expressing NDM-1 (CLB30016), 95% growth inhibition
[20] = Klebsiella pneumoniae expressing VIM-1 (IHMA599644), 95% growth inhibition
[21] = NDM-1 enzyme, CCF2-FA fluorescence assay
[22] = IMP-1 enzyme, CCF2-FA fluorescence assay
[23] = VIM-1 IC50, VIM-1 enzyme, CCF2-FA substrate
[24] = VIM-1 enzyme, CCF2-FA fluorescence assay, read-out: VIM-1 IC50

Sequence of NDM-1 (C7C422 whole entry, looked up, species assumed): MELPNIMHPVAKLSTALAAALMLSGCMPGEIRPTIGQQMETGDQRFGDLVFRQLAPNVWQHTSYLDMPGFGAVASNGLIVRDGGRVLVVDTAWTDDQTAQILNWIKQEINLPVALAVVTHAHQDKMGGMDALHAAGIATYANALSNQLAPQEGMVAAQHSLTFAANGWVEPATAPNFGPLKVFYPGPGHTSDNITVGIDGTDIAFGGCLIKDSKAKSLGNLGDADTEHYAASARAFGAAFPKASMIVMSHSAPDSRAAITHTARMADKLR
Sequence of IMP-1 (P52699 whole entry, looked up): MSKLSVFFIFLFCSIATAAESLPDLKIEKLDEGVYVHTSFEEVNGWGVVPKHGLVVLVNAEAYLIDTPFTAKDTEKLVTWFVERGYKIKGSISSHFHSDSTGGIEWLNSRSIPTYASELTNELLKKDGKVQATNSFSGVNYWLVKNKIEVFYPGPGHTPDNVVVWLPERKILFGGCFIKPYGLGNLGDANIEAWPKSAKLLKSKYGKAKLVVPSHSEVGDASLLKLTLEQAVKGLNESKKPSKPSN

| Structure (SMILES) | Serratia marcescens MITC95 [1, 9] [µM] | Escherichia coli MITC95 [2, 10] [µM] | Klebsiella pneumoniae MITC95 [3, 11] [µM] | IC50 [4, 12] [nM] | IC50 [5, 13] [nM] | Serratia marcescens MITC95 [1, 18] [µM] | Escherichia coli MITC95 [2, 19] [µM] | Klebsiella pneumoniae MITC95 [3, 20] [µM] | IC50 [4, 21] [nM] | IC50 [5, 22] [nM] | IC50 [6, 23] [nM] | further results |
| --- | --- | --- | --- | --- | --- | --- | --- | --- | --- | --- | --- | --- |
| NS(=O)(=O)c1cccc(-c2cnc(N3CCCCC3)nc2)c1-c1nnn[nH]1 [Example 122, 3-(2-(piperidin-1-yl)pyrimidin-5-yl)-2-(1H-tetrazol-5-yl)benzenesulfonamide] |  |  |  |  |  |  |  |  |  |  |  | Serratia marcescens expressing IMP-1 (CL5741) MITC95 [1]: 4.688 µM; Escherichia coli expressing NDM-1 (CLB 30016) MITC95 [2]: 4.688 µM; Klebsiella pneumoniae expressing VIM-1 (IHMA 599644) MITC95 [3]: >200 µM; IC50 [4, 7]: 3.08 nM; IC50 [5, 7]: 63.1 nM; IC50 [6, 8]: 249 nM |
| N[C@@H]1CCCN(c2ccc(-c3ccc(C(F)(F)F)c(S(N)(=O)=O)c3-c3nnn[nH]3)cc2)C1 [Example 727, 4′-[(3R)-3-aminopiperidin-1-yl]-2-(1H-tetrazol-5-yl)-4-(trifluoromethyl)biphenyl-3-sulfonamide] | 3.125 | 3.125 | 25 | 2.13 | 1.97 |  |  |  |  |  |  | IC50 [6, 14]: 0.914 nM |
| NS(=O)(=O)c1c(C(F)(F)F)ccc(N2CCC(N3CCNCC3)CC2)c1-c1nnn[nH]1 [Example 780, 3-(4-piperazin-1-yl-1-piperidyl)-2-(1H-tetrazol-5-yl)-6-(trifluoromethyl) benzenesulfonamide] |  |  |  |  |  |  |  |  |  |  |  | Serratia marcescens MITC95 [1, 15]: 1.563 µM; Escherichia coli MITC95 [2, 16]: 1.563 µM; Klebsiella pneumoniae MITC95 [3, 17]: 2.344 µM; IC50 [4, 7]: 17.7 nM; IC50 [5, 7]: 31.7 nM; IC50 [6, 8]: 0.274 nM |
| CC(NCc1ccc(-c2cccc(S(N)(=O)=O)c2-c2nnn[nH]2)cc1)C(=O)O (stereo not drawn) [Example 358, N-{[3′-sulfamoyl-2′-(1H-tetrazol-5-yl)biphenyl-4-yl]methyl}alanine] |  |  |  |  |  | 4.688 | 3.125 | 75 | 32.8 | 288 |  | IC50 ([6]; VIM-1 IC50, VIM-1 enzyme, CCF2-FA fluorescence assay): 387 nM |
| NS(=O)(=O)c1c(C(F)(F)F)ccc(-c2cccn3ncnc23)c1-c1nnn[nH]1 [Example 840, 3-([1,2,4]triazolo[1,5-a]pyridin-8-yl)-2-(1H-tetrazol-5-yl)-6-(trifluoromethyl)benzenesulfonamide] |  |  |  |  |  |  |  |  |  |  |  | Serratia marcescens MITC95 [1, 15]: 12.5 µM; Escherichia coli MITC95 [2, 16]: 3.125 µM; Klebsiella pneumoniae MITC95 [3, 17]: 6.25 µM; IC50 [4, 7]: 2.49 nM; IC50 [5, 7]: 14.1 nM; IC50 [6, 8]: 0.46 nM |
| NS(=O)(=O)c1cccc(-c2ccc(-n3cccn3)nc2)c1-c1nnn[nH]1 [Example 117, 3-(6-(1H-pyrazol-1-yl)pyridin-3-yl)-2-(1H-tetrazol-5-yl)benzenesulfonamide] |  |  |  |  |  |  |  |  |  |  |  | Serratia marcescens expressing IMP-1 (CL5741) MITC95 [1]: 6.25 µM; Escherichia coli expressing NDM-1 (CLB 30016) MITC95 [2]: 1.172 µM; Klebsiella pneumoniae expressing VIM-1 (IHMA 599644) MITC95 [3]: 100 µM; IC50 [4, 7]: 5.18 nM; IC50 [5, 7]: 134 nM; IC50 [6, 8]: 135 nM |
| NC(=O)CN1CCC(Cc2ccc(-c3ccc(C4CNC4)cc3)c(-c3nn[nH]n3)c2S(N)(=O)=O)CC1 [Example 609, 2-[4-[[4-[4-(azetidin-3-yl)phenyl]-2-sulfamoyl-3-(2H-tetrazol-5-yl)phenyl]methyl]-1-piperidyl]acetamide] | 12.5 | 6.25 | 3.125 | 21.3 | 83.9 |  |  |  |  |  |  | IC50 [6, 14]: 1.64 nM |
| Nc1ccc(-c2ccc(CC3CCNCC3)c(S(N)(=O)=O)c2-c2nnn[nH]2)cn1 [Example 576, 3-(6-amino-3-pyridyl)-6-(4-piperidylmethyl)-2-(1H-tetrazol-5-yl)benzenesulfonamide] | 6.323 | 0.5969 | 4.24 | 12.3 | 164 |  |  |  |  |  | 24.8 |  |
| NS(=O)(=O)c1c(C2CC2)ccc(-c2ccnc3ccccc23)c1-c1nn[nH]n1 [Example 275, 6-cyclopropyl-3-(quinolin-4-yl)-2-(2H-tetrazol-5-yl)benzenesulfonamide] |  |  |  |  |  | 0.7813 | 3.125 | 9.375 | 3.68 | 6.7 |  | IC50 [6, 24]: 0.637 nM |
| Nc1cc(-c2ccc(C(F)(F)F)c(S(N)(=O)=O)c2-c2nnn[nH]2)cc(N)n1 [Example 714, 3-(2,6-diaminopyridin-4-yl)-2-(1H-tetrazol-5-yl)-6-(trifluoromethyl)benzenesulfon-amide] | 12.5 | 1.563 | 3.125 | 5.05 | 31.7 |  |  |  |  |  | 0.799 |  |
| Nc1n[nH]c2ccc(-c3ccc(C(F)(F)F)c(S(N)(=O)=O)c3-c3nnn[nH]3)cc12 [Example 480, 3-(3-amino-1H-indazol-5-yl)-2-(1H-tetrazol-5-yl)-6-(trifluoromethyl)benzenesulfonamide] |  |  |  |  |  | 0.7813 | 0.7813 | 2.344 | 0.871 | 9.14 |  | IC50 [6, 24]: 0.264 nM |
| NS(=O)(=O)c1c(C(F)(F)F)ccc([C@H]2CC[C@H](N[C@H]3CC[C@H]4CCN[C@H]4C3)CC2)c1-c1nnn[nH]1 [Example 679, 3-{4-[(3aS,6S,7aS)-octahydro-1H-indol-6-ylamino]cyclohexyl}-2-(1H-tetrazol-5-yl)-6-(trifluoromethyl)benzene sulfonamide] | 3.125 | 1.563 | 50 | 19.8 | 75.3 |  |  |  |  |  | 21.2 |  |
| Nc1nc2ccc(-c3cccc(S(N)(=O)=O)c3-c3nnn[nH]3)cc2s1 [Example 417, 3-(2-amino-1,3-benzothiazol-6-yl)-2-(1H-tetrazol-5-yl)benzenesulfonamide] |  |  |  |  |  | 2.344 | 1.953 | 9.375 | 0.76 | 49.8 |  | IC50 [6, 24]: 8.53 nM |
| NC1CCC(N[C@H]2CC[C@H](c3ccc(C(F)(F)F)c(S(N)(=O)=O)c3-c3nnn[nH]3)CC2)CC1 (stereo partly drawn) [Example 690, 3-{4-[(4-aminocyclohexyl)amino]cyclohexyl}-2-(1H-tetrazol-5-yl)-6-(trifluoromethyl)benzene sulfonamide] | 3.125 | 1.563 | 25 | 12.6 | 75.9 |  |  |  |  |  | 5.26 |  |
| NC[C@H]1CC[C@H](Cc2ccc(-c3ccc(C4CCNCC4)cc3)c(-c3nn[nH]n3)c2S(N)(=O)=O)CC1 [Example 457, 4-(((1r,4r)-4-(aminomethyl)cyclohexyl)methyl)-4′-(piperidin-4-yl)-2-(2H-tetrazol-5-yl)-[1,1′-biphenyl]-3-sulfonamide] |  |  |  |  |  | 0.1953 | 0.3906 | 1.172 | 1.1 | 3.05 |  | IC50 [6, 24]: 0.803 nM |
| NC1CC(N[C@H]2CC[C@H](c3ccc(C(F)(F)F)c(S(N)(=O)=O)c3-c3nnn[nH]3)CC2)C1 (stereo partly drawn) [Example 702, 3-{4-[(3-aminocyclobutyl)amino]cyclohexyl}-2-(1H-tetrazol-5-yl)-6-(trifluoromethyl)benzene sulfonamide] | 3.125 | 0.7813 | 1.563 | 4.02 | 25.2 |  |  |  |  |  | 2.25 |  |

— US9708336B2, “Metallo-beta-lactamase inhibitors” (priority 2014, dated 2017)
